Assay results taken from publication PMC3303611 (Journal of Medicinal Chemistry, 2012).
pKi: −log10 of the molar value. Read-outs that look alike come from different tables or passages of the source.

Assays:
H3 receptor = H3 receptor (Homo sapiens, UniProt Q9Y5N1); assay: GTP-γ-S assay performed by the Psychoactive Drug Screening Program; format: biochemical
brain H3 receptors = assay: PET imaging of [18F]9 in monkey; format: in vivo, rhesus monkey; conditions: [18F]9 Vt, two monkeys, ciproxifan pretreatment
rat H3 receptors = conditions: known, ref not given; cited from earlier work
human H3 receptors = conditions: human vs rat H3; known, ref not given; cited from earlier work

Chain of H3 receptor (Q9Y5N1 whole entry): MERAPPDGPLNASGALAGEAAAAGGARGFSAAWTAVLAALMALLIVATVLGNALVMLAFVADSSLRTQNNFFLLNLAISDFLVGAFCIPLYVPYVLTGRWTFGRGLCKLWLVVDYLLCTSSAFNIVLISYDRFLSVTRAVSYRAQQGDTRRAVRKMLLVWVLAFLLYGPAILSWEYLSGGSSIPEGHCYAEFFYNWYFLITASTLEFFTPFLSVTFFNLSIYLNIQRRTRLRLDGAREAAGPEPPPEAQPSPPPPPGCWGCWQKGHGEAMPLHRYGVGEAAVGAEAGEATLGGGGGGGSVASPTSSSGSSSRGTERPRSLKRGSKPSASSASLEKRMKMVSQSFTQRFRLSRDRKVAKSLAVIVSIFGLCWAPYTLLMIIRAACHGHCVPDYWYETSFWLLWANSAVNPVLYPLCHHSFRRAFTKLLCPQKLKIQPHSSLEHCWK

In the case of `C[C@@H]1CCCN1CCc1cc2cc(C(=O)c3ccc(F)cc3)ccc2o1` [Compound 9, (R)-(2-(2-(2-methylpyrrolidin-1-yl)ethyl)benzofuran-5-yl)(4-fluorophenyl)methanone], the intrinsic activity (H3 receptor) was “inverse agonists”.

With `C[C@@H]1CCCN1CCc1cc2cc(C(=O)c3ccc([N+](=O)[O-])cc3)ccc2o1` [Compound 12, (R)-(2-(2-(2-Methylpyrrolidin-1-yl)ethyl)benzofuran-5-yl)(4-nitrophenyl)methanone] the intrinsic activity (H3 receptor; GTP-γ-S assay, Psychoactive Drug Screening Program) was “inverse agonists”.

For `O=C(c1ccc(OCCCc2c[nH]cn2)cc1)C1CC1` [ciproxifan], the “Mean Vt decrease” value (brain H3 receptors; Cerebellum) was -26%, the “Mean Vt decrease” value (brain H3 receptors; Frontal cortex) was -34% and the “Mean Vt decrease” value (brain H3 receptors; Hippocampus) was -33%. For the same compound, the “Mean Vt decrease” value (brain H3 receptors; Striatum) was -26%, the “Mean Vt decrease” value (brain H3 receptors; Thalamus) was -33% and the pKi (rat H3 receptors) was 9.29. The “lower affinity for human H3 receptors than for rat H3 receptors” value (human H3 receptors) was “over 100 fold”.
